The test system of assay [1] is Neonatal rat ventricular myocytes (NRVMs). The experiment in a line: Inhibition of fatty acid transport blocks serum-induced NRVM hypertrophy. The class given is cell-based. The settings on record: Coulter Counter. Here is the method: Synthesis of Sulfo-N-succinimidyl oleate (SSO) was performed as described by Harmon et al. (J. Membr Biol.; 121:261-268; 1991), which is hereby incorporated by reference. Briefly, oleate (0.25 mM), HOSu(SO3)Na (0.25 mM), and dicyclohexylcarbodiimide (DCC) (0.275 mM) were dissolved in 0.5 ml of dry N,N-dimethylformamide (DMF) and stirred overnight at room temperature. Precipitated dicyclohexyturea was removed by filtration, and the filtrate cooled to 3° C. for 4 hours. Eight volumes of ethyl acetate were added, and the precipitated product was collected by filtration under nitrogen and then stored in a vacuumed desiccator over phosphorus pentoxide. Neonatal rat ventricular myocytes (NRVMs) were cultured in serum-free media (MEM/Hepes/PB12) containing insulin, transferrin, BSA, and BrdU. NRVMs were treated with serum (2%) in the presence and absence of SSO (400 μM) for 48 hours and cell size was determined using a Coulter Counter.

Another assay has as its system Aquaporin 7. In words: Aqp7 mRNA by qPCR after fatty acid treatment. The settings on record: fasted plasma supplemented with FFAs, relative to 1 DPF plasma, FIG. 11. The class given is cell-based, rat. As to the method:
(§1) Individual fatty acids were complexed to BSA as described by de Vries et al. (J. Lipid Res.; 38:1384-1394; 1997), which is hereby incorporated by reference. […] An equal volume of Na2CO3 (10 mM) was added and the ethanol was evaporated at 60° C. under continuous N2 flow. The fatty acid mix was added dropwise to 10% BSA. BSA/fatty acid complexes were then dialyzed four times at 4° C. during 4-6 hours in NH4HCO3 (0.1 M). Complexes were then frozen, lyophilized overnight, and resuspended in NRVM rinse media (MEM/PB12/Hepes) for a final concentration of 7 mM. NRVMs were treated with fasted serum, 1 day post-fed serum, or fasted serum+individual fatty acids. […] NRVM gene expression and mean cell diameter were determined after either 24 or 48 hours, respectively.
In general terms: In qPCR the cycle at which signal appears reflects the starting amount.

The test system of assay [2] is neonatal rat cardiomyocytes. The experiment in a line: Fasted plasma supplemented with fatty acids, NRVM cell size. The class given is cell-based. The settings on record: fasted plasma 2% supplemented to 1 DPF-like levels (C14 40 μM; C16 137 μM; C16:1 7.5 μM), 48 hours, FIG. 10. As to the method: as §1

In the case of `CCCCCCCC/C=C\CCCCCCCC(=O)ON1C(=O)CC(S(=O)(=O)O)C1=O` (stereo not shown) [SSO, Sulfo-N-succinimidyl oleate], in assay [1] (SSO 400 μM, 2% 1DPF serum, 48 hours), the “cell growth induced by the fed-serum” value is “completely blocks”. In assay [1] (SSO and no serum (control)), the cell size result is reported as “smaller”.
Regarding `CCCCCCCCCCCCCC(=O)O` [C14, tetradecanoic acid], the “Aqp7 mRNA levels” value in the assay with Aquaporin 7 was “comparable levels observed with 1 DPF plasma”. Also, in assay [2], the “changes in cell size” value was “significant increase”.

(Values after patent publication US9925162B2, “Methods and compositions for inducing physiological hypertrophy” (THE REGENTS OF THE UNIVERSITY OF COLORADO, priority 2009, dated 2018).)
